In test [1] the target is T1, DYRK1A (Homo sapiens, UniProt Q13627).
T1 construct: purchased Eurofins; host or cells: E. coli BL21-derived (T7 phage display) or HEK-293
The test can be described thus: HiBiT split luciferase assay of targeted degradation of DYRK1A in Flp-In T-REx 293 cells. In kind it is cell-based. Conditions: 300 nM compound, 24 h, HiBiT-tagged DYRK1A in Flp-In T-REx 293 cells, normalized to vehicle; read-out: Relative Degradation at 300 nM DYRK1A. The source says: (§1) The Flp-In T-REx 293 Cell Line and the pcDNA5/FRT/TO vector (Invitrogen) were used to generate stable cell clones for tetracyclin-inducible expression of DYRK1A and DYRK1B. These cells contain a single stably integrated Flp recognition target (FRT) site, which allows for site-specific integration of the expression cassette by the Flp (Flippase) recombinase. DYRK1 constructs were designed to contain a C-terminal HiBiT tag for quantitative detection of HiBiT-tagged proteins in cellular lysates with the help a split luciferase assay (Nano-Glo HiBiT Lytic Detection System, Promega). To monitor the targeted degradation of DYRK1A or DYRK1B, cells were seeded in 96-well plates (10,000 cells/per well) and treated with doxycyclineinal concentration 2 μg/ml) to induce DYRK1 expression. Compounds with presumed PROTAC activity were administered 24 h after seeding. After further incubation for 24 h, cells were grossly and microscopically inspected for overt toxicity. Cells were lysed in 100 μL ice-cold passive lysis buffer (PLB, Promega) by orbital shaking (30 min on ice) before lysates were centrifuged in PCR tube (20 min 20,000 g, RT). A 10 μl aliquot of the supernatant was subjected to the HiBiT lytic assay. Luminescence was quantified in an Orion Microplate luminometer (Berthold Detection System, Germany). All compounds were tested in duplicate or triplicate wells (technical replicates) and at least two independent experiments. Relative degradation was calculated by normalization to vehicle-treated control samples.
Background: The HiBiT peptide binds its large partner to form an active luciferase.

The target in test [2] is T2, DYRK1B (Homo sapiens, UniProt Q9Y463).
T2 construct: purchased Eurofins; host or cells: E. coli BL21-derived (T7 phage display) or HEK-293
T2 sequence (Q9Y463 whole entry, species assumed): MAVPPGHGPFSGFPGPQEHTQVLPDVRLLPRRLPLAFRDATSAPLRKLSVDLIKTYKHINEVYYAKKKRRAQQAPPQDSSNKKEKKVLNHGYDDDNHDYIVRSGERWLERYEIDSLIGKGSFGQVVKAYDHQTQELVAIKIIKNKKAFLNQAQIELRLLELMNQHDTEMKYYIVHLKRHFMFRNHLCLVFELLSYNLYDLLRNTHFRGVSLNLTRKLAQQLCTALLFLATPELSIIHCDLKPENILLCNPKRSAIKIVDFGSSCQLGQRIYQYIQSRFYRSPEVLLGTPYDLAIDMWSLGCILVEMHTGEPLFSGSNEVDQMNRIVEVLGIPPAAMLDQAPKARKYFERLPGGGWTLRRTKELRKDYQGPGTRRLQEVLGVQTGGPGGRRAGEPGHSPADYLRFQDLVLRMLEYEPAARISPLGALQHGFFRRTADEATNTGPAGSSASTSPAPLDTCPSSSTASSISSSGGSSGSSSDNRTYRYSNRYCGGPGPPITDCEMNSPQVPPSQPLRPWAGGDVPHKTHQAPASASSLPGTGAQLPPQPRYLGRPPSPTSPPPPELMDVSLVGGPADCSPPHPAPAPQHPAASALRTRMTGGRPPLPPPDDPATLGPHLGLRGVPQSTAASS
The test can be described thus: HiBiT split luciferase assay of targeted degradation of DYRK1B in Flp-In T-REx 293 cells. The test is classed as cell-based. The conditions noted are these: 300 nM compound, 24 h, HiBiT-tagged DYRK1B in Flp-In T-REx 293 cells, normalized to vehicle; read-out: Relative Degradation at 300 nM DYRK1B.
Text: as §1

Test [3] addresses T1, DYRK1A. The test can be described thus: KdELECT kinase binding assay (Eurofins), DYRK1A. The conditions noted are these: 11-point 3-fold dilution series, qPCR readout; read-out: Binding Affinity (Kd) DYRK1A. Here is the method: (§2) KDs were obtained from Eurofins who used the following procedure: Kinase tagged T7 phase strains were prepared in an E. coli host derived from the BL21 strain. E. coli were grown to log-phase and infected with T7 phage and incubated with shaking at 32° C. until lysis. The lysates were centrifuged and filtered to remove cell debris. The remaining kinases were produced in HEK-293 cells and subsequently tagged with DNA for qPCR detection. Streptavidin-coated magnetic beads were treated with biotinylated small molecule ligands for 30 minutes at room temperature to generate affinity resins for kinase assays. The liganded beads were blocked with excess biotin and washed with locking buffer (SeaBlock (Pierce), 1% BSA, 0.05% Tween 20, 1 mM DTT) to remove unbound ligand and to reduce non-specific binding. Binding reactions were assembled by combining kinases, liganded affinity beads, and test compounds in 1× binding buffer (20% SeaBlock, 0.17× PBS, 0.05% Tween 20, 6 mM DTT). Test compounds were prepared as 111X stocks in 100% DMSO. Kds were determined using a 11-poin 3-fold compound dilution series with three DMSO control points. All compounds for Kd measurements are distributed by acoustic transfer (non-contact dispensing) in 100% DMSO. The compounds were then diluted directly into the assays such that the final concentration of DMSO was 0.9%. All reactions performed in polypropylene 384-well plate. Each was a final volume of 0.02 mL. The assay plates were incubated at room temperature with shaking for 1 hour and the affinity beads were washed with wash buffer (1×PBS, 0.05% Tween 20). The beads were then resuspended in elution buffer (1X PBS, 0.05% Tween 20, 0.5 µM nonbiotinylated affinity ligand) and incubated at room temperature with shaking for 30 minutes. The kinase concentration in the eluates was measured by qPCR.
On the technique in general: Quantitative PCR measures a nucleic acid by following its amplification.

In test [4] the target is T2, DYRK1B. The test can be described thus: KdELECT kinase binding assay (Eurofins), DYRK1B. Conditions: 11-point 3-fold dilution series, qPCR readout; read-out: Binding Affinity (Kd) DYRK1B. Here is the method:
as §2

As a reminder, the Kd is the equilibrium constant for the complex coming apart. Take `Cc1ncsc1-c1ccc(CNC(=O)[C@@H]2C[C@@H](O)CN2C(=O)[C@@H](NC(=O)CCOCCOCCN2CCN(c3ccc(-n4c(C)nc5ccc(-c6ccnc(N)c6)nc54)cc3F)CC2)C(C)(C)C)cc1` [Compound 1, (2S,4R)-1-((S)-2-(3-(2-(2-(4-(4-(5-(2-aminopyridin-4-yl)-2-methyl-3H-imidazo[4,5-b]pyridin-3-yl)-2-fluorophenyl)piperazin-1-yl)ethoxy)ethoxy)propanamido)-3,3-dimethylbutanoyl)-4-hydroxy-N-(4-(4-methylthiazol-5-yl)benzyl)pyrrolidine-2-carboxamide]: the inhibition at 0.3 µM on DYRK1A [1] and at DYRK1B [2] was under 30% in each case. Besides, the Kd at DYRK1A [3] and at DYRK1B [4] was under 0.01 µM in each case.
Consider `Cc1nc2ccc(-c3ccnc(N)c3)nc2n1-c1ccc(N2CCN(CCOCCOCCOCCNc3cccc4c3C(=O)N(C3CCC(=O)NC3=O)C4=O)CC2)c(F)c1` (stereo not drawn) [Compound 6, 4-((2-(2-(2-(2-(4-(4-(5-(2-aminopyridin-4-yl)-2-methyl-3H-imidazo[4,5-b]pyridin-3-yl)-2-fluorophenyl)piperazin-1-yl)ethoxy)ethoxy)ethoxy)ethyl)amino)-2-(2,6-dioxopiperidin-3-yl)isoindoline-1,3-dione], for which the inhibition at 0.3 µM is 30 to 60% on DYRK1A [1] and under 30% at DYRK1B [2]. In addition, the Kd at DYRK1A [3] and at DYRK1B [4] was under 0.01 µM in each case.
On to `Cc1nc2ccc(-c3ccnc(N)c3)nc2n1-c1ccc(N2CCN(CC#Cc3ccc(N4CCC(C(=O)N5CCC(n6cc(CNc7cccc8c7C(=O)N(C7CCC(=O)NC7=O)C8=O)cn6)CC5)CC4)nc3)CC2)c(F)c1` (stereo not drawn) [Compound 18, 4-(((1-(1-(1-(5-(3-(4-(4-(5-(2-aminopyridin-4-yl)-2-methyl-3H-imidazo[4,5-b]pyridin-3-yl)-2-fluorophenyl)piperazin-1-yl)prop-1-yn-1-yl)pyridin-2-yl)piperidine-4-carbonyl)piperidin-4-yl)-1H-pyrazol-4-yl)methyl)amino)-2-(2,6-dioxopiperidin-3-yl)isoindoline-1,3-dione], for which the results for the inhibition at 0.3 µM at DYRK1A [1] and on DYRK1B [2] were over 60% and over 50%, respectively. In addition, the values for the Kd on DYRK1A [3] and on DYRK1B [4] were under 0.01 µM and 0.01 to 0.1 µM, respectively.
Take `Cc1nc2ccc(-c3ccnc(N)c3)nc2n1-c1ccc(N2CCN(CCOCCOCCNc3cccc4c3C(=O)N(C3CCC(=O)NC3=O)C4=O)CC2)c(F)c1` (stereo not drawn) [Compound 5, 4-((2-(2-(2-(4-(4-(5-(2-aminopyridin-4-yl)-2-methyl-3H-imidazo[4,5-b]pyridin-3-yl)-2-fluorophenyl)piperazin-1-yl)ethoxy)ethoxy)ethyl)amino)-2-(2,6-dioxopiperidin-3-yl)isoindoline-1,3-dione]: the values for the inhibition at 0.3 µM on DYRK1A [1] and at DYRK1B [2] were 30 to 60% and under 30%, respectively. In addition, the Kd on DYRK1A [3] and on DYRK1B [4] was under 0.01 µM in each case.
Regarding `Cc1nc2ccc(-c3ccnc(N)c3)nc2n1-c1ccc(N2CCN(CCOCCOCCC(=O)N3CCN(Cc4ccc(CNc5cccc6c5CN(C5CCC(=O)NC5=O)C6=O)cc4)CC3)CC2)c(F)c1` (stereo not drawn) [Compound 10, 3-(4-((4-((4-(3-(2-(2-(4-(4-(5-(2-aminopyridin-4-yl)-2-methyl-3H-imidazo[4,5-b]pyridin-3-yl)-2-fluorophenyl)piperazin-1-yl)ethoxy)ethoxy)propanoyl)piperazin-1-yl)methyl)benzyl)amino)-1-oxoisoindolin-2-yl)piperidine-2,6-dione], the inhibition at 0.3 µM is 30 to 60% on DYRK1A [1] and under 30% at DYRK1B [2]. Moreover, the Kd is under 0.01 µM on DYRK1A [3] and 0.01 to 0.1 µM on DYRK1B [4].
In the same order, the values of `Cc1ncsc1-c1ccc(CNC(=O)[C@@H]2C[C@@H](O)CN2C(=O)[C@@H](NC(=O)CCOCCOCCOCCOCCOCCN2CCN(c3ccc(-n4c(C)nc5ccc(-c6ccnc(N)c6)nc54)cc3F)CC2)C(C)(C)C)cc1` [Compound 4, (2S,4R)-1-((S)-1-(4-(4-(5-(2-aminopyridin-4-yl)-2-methyl-3H-imidazo[4,5-b]pyridin-3-yl)-2-fluorophenyl)piperazin-1-yl)-20-(tert-butyl)-18-oxo-3,6,9,12,15-pentaoxa-19-azahenicosan-21-oyl)-4-hydroxy-N-(4-(4-methylthiazol-5-yl)benzyl)pyrrolidine-2-carboxamide] are under 30%, under 30%, under 0.01 µM and under 0.01 µM.
In the same order, the values of `Cc1nc2ccc(-c3ccnc(N)c3)nc2n1-c1ccc(N2C3CCC2CN(CC#Cc2ccc(N4CCC(C(=O)N5CCC(n6cc(CNc7cccc8c7C(=O)N(C7CCC(=O)NC7=O)C8=O)cn6)CC5)CC4)nc2)C3)c(F)c1` (stereo not drawn) [Compound 21, 4-(((1-(1-(1-(5-(3-(8-(4-(5-(2-aminopyridin-4-yl)-2-methyl-3H-imidazo[4,5-b]pyridin-3-yl)-2-fluorophenyl)-3,8-diazabicyclo[3.2.1]octan-3-yl)prop-1-yn-1-yl)pyridin-2-yl)piperidine-4-carbonyl)piperidin-4-yl)-1H-pyrazol-4-yl)methyl)amino)-2-(2,6-dioxopiperidin-3-yl)isoindoline-1,3-dione] are 30 to 60%, under 30%, 0.01 to 0.1 µM and 0.1 to 1 µM.
Turning to `Cc1ncsc1-c1ccc(CNC(=O)[C@@H]2C[C@@H](O)CN2C(=O)[C@@H](NC(=O)CCOCCOCCOCCOCCN2CCN(c3ccc(-n4c(C)nc5ccc(-c6ccnc(N)c6)nc54)cc3F)CC2)C(C)(C)C)cc1` [Compound 3, (2S,4R)-1-((S)-1-(4-(4-(5-(2-aminopyridin-4-yl)-2-methyl-3H-imidazo[4,5-b]pyridin-3-yl)-2-fluorophenyl)piperazin-1-yl)-17-(tert-butyl)-15-oxo-3,6,9,12-tetraoxa-16-azaoctadecan-18-oyl)-4-hydroxy-N-(4-(4-methylthiazol-5-yl)benzyl)pyrrolidine-2-carboxamide], the inhibition at 0.3 µM at DYRK1A [1] and at DYRK1B [2] was under 30% throughout. The Kd on DYRK1A [3] and at DYRK1B [4] was under 0.01 µM each time.
With `Cc1nc2ccc(-c3ccnc(N)c3)nc2n1-c1cc(F)c(N2CCN(CC#Cc3ccc(N4CCC(C(=O)N5CCC(n6cc(CNc7cccc8c7C(=O)N(C7CCC(=O)NC7=O)C8=O)cn6)CC5)CC4)nc3)CC2)c(F)c1` (stereo not drawn) [Compound 23, 4-(((1-(1-(1-(5-(3-(4-(4-(5-(2-aminopyridin-4-yl)-2-methyl-3H-imidazo[4,5-b]pyridin-3-yl)-2,6-difluorophenyl)piperazin-1-yl)prop-1-yn-1-yl)pyridin-2-yl)piperidine-4-carbonyl)piperidin-4-yl)-1H-pyrazol-4-yl)methyl)amino)-2-(2,6-dioxopiperidin-3-yl)isoindoline-1,3-dione], the inhibition at 0.3 µM on DYRK1A [1] was over 60%; on DYRK1B [2] it was over 50%. Also, the Kd on DYRK1A [3] and on DYRK1B [4] was under 0.01 µM each time.

(Values after patent US20260183407A1, “DYRK/CLK PROTACS AND USES THEREOF” (Arizona Board of Regents on Behalf of the University of …, priority 2022, published 2026).)
